# Legend:
# [1] = molecular target: T1, β-galactosidase (β-Galase) (Escherichia coli, UniProt P00722); assay: Commercial glycosidase inhibition: β-galactosidase from E. coli (β-Galase); assay type: biochemical; details: mean ± SD, three determinations; competitive; n.i. = no inhibition detected at 1 mM
# T1 construct: purchased
# Text: (§1) We first evaluated the inhibitory properties of the new nonreducing mono- and bicyclic sp^2-iminosugars 4–15 against a panel of commercial glycosidases that included the α-glucosidases maltase (yeast maltase; α-Glcase1) and isomaltase (α-Glcase2) from Saccharomyces cerevisiae and amyloglucosidase (α-Glcase3) from Aspergillus niger, the β-glucosidases from almonds (β-Glcase1) and bovine liver (β-Glcase2), the α-galactosidase from green coffee beans (α-Galase), the β-galactosidase from Escherichia coli (β-Galase), and the α-mannosidase from Jack bean (α-Manase).
# (§2) Inhibition constant (Ki) values were determined by spectrophotometrically measuring the residual hydrolytic activities of the glycosidases against the respective o- (for β-galactosidase from E. coli) or p-nitrophenyl α- or β-D-glycopyranoside (for other glycosidases) in the presence of the iminosugars. Each assay was performed in phosphate buffer or phosphate-citrate buffer (for α- or β-mannosidase and amyloglucosidase) at the optimal pH for the enzymes. The reactions were initiated by addition of the enzyme to a solution of the substrate in the absence or presence of various inhibitor concentrations. The mixture was incubated for 10–30 min at 37 °C or 55 °C (for amyloglucosidase) and the reaction was quenched by addition of 1 M Na2CO3. Reaction times were appropriate to obtain 10–20% conversion of the substrate in order to achieve linear rates. The absorbance of the resulting mixture was determined at 405 nm. Approximate value of Ki was determined from the slope of Dixon plots using a fixed concentration of substrate (around the Km value for the different glycosidases) and various concentrations of inhibitor. Full Ki determinations and enzyme inhibition mode were determined from the slope of Lineweaver–Burk plots and double reciprocal analysis.
# isomaltase (α-Glcase2) = molecular target: T2, isomaltase (α-Glcase2) (Saccharomyces cerevisiae, UniProt P53051); assay: Commercial glycosidase inhibition: isomaltase (α-Glcase2); assay type: biochemical; details: mean ± SD, three determinations; competitive; n.i. = no inhibition detected at 1 mM
# T2 construct: purchased
# Text: as §1, §2
# N188S/G183W mutant GCase = molecular target: T3, N188S/G183W mutant GCase (Homo sapiens, UniProt P04062, N227S); assay: Chaperone test in N188S/G183W type 3 Gaucher patient fibroblasts; assay type: cell-based
# T3 construct: endogenous in cells; host or cells: skin fibroblasts of N188S/G183W type 3 Gaucher patients
# T3 sequence (P04062 40-536 N227S): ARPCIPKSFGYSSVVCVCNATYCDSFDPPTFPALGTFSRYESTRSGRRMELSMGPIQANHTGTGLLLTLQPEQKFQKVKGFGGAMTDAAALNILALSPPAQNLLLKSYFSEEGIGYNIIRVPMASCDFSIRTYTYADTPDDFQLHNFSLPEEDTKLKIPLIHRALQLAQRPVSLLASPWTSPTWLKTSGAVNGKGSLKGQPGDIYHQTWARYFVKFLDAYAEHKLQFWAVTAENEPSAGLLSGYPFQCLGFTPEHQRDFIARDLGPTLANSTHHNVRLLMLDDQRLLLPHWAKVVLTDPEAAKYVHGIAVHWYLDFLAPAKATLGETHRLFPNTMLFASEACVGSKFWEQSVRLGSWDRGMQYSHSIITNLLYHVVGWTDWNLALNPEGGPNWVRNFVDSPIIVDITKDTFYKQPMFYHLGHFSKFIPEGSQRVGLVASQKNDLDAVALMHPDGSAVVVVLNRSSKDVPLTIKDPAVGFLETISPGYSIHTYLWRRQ
# Text: To test the chaperoning capabilities, Gaucher fibroblasts from patients hosting the adult neuronopathic (type 3) Gaucher disease-associated N188S/G183W mutant GCase were employed. It is worth mentioning that the neuronopathic clinical subtypes of Gaucher disease remain currently at orphan status, given the inability of the recombinant enzyme used in enzyme replacement therapy or the glucosylceramide synthase inhibitor Zavesca® used in substrate reduction therapy to cross the blood–brain barrier. This mutation is located in the catalytic domain (domain III) of GCase and has been previously found to be responsive to sp^2-iminosugar-type chaperones. […] Yet, the activity trend as a function of the chaperone concentration was starkly different between them. Thus, the nonreducing representatives 3 and 4 reached the maximum chaperoning effect at 200 nM and as low as 2 nM concentration, respectively, as compared with 20 and 2 μM for the reducing homologues 1 and 2.
# Normal and Gaucher disease patients’ skin fibroblasts were cultured in Dulbecco modified Eagle’s medium (WAKO, Richmond, VA, USA) supplemented with 10% fetal bovine serum (Nichirei Biosci. Inc., Tokyo, Japan) at 37 °C in 5% CO2. For measurement of chaperone activities, fibroblasts were plated onto 35 mm dishes at 50,000 cells per dish. After 24 h incubation, the medium with the indicated concentrations of compound was applied and cells were cultured for 96 h. Then, the lysates in 0.1% Triton-X100/distilled H2O were collected from the cells and assayed for lysosomal GCase as described above. To measure the cytotoxic effect of the compounds, normal human fibroblasts were plated onto 35 mm dishes at 15,000 cells per dish and incubated overnight. Then, the medium was changed with or without compounds. After 24 h incubation, the supernatant of the cells was collected and measured by the lactate dehydrogenase assay (WAKO, Richmond, VA, USA). All the cell lines used were tested for mycoplasma contamination before conducting the chaperone and toxicity assays.
# [2] = molecular target: T4, amyloglucosidase (α-Glcase3) (Aspergillus niger, UniProt P69328); assay: Commercial glycosidase inhibition: amyloglucosidase (α-Glcase3); assay type: biochemical; details: mean ± SD, three determinations; competitive; n.i. = no inhibition detected at 1 mM
# T4 construct: purchased
# Text: as §1, §2
# [3] = N188S/G183W Gaucher fibroblasts
# T4 sequence (P69328 25-640): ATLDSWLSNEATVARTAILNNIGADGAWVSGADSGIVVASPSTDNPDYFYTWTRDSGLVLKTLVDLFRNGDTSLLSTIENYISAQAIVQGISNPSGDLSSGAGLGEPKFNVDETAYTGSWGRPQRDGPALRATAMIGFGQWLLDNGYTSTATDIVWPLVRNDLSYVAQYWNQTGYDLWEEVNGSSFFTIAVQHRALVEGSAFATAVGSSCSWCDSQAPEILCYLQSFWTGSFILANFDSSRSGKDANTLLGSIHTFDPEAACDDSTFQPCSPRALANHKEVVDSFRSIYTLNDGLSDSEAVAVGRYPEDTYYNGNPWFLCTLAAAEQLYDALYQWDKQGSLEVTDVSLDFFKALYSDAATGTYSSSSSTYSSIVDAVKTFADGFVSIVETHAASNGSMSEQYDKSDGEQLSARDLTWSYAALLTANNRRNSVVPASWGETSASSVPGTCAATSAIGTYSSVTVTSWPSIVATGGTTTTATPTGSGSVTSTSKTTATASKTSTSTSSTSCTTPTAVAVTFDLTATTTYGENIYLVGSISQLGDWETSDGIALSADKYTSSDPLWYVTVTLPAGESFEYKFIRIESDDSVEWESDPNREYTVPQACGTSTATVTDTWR
# T1 sequence (P00722 2-1024 limits assumed): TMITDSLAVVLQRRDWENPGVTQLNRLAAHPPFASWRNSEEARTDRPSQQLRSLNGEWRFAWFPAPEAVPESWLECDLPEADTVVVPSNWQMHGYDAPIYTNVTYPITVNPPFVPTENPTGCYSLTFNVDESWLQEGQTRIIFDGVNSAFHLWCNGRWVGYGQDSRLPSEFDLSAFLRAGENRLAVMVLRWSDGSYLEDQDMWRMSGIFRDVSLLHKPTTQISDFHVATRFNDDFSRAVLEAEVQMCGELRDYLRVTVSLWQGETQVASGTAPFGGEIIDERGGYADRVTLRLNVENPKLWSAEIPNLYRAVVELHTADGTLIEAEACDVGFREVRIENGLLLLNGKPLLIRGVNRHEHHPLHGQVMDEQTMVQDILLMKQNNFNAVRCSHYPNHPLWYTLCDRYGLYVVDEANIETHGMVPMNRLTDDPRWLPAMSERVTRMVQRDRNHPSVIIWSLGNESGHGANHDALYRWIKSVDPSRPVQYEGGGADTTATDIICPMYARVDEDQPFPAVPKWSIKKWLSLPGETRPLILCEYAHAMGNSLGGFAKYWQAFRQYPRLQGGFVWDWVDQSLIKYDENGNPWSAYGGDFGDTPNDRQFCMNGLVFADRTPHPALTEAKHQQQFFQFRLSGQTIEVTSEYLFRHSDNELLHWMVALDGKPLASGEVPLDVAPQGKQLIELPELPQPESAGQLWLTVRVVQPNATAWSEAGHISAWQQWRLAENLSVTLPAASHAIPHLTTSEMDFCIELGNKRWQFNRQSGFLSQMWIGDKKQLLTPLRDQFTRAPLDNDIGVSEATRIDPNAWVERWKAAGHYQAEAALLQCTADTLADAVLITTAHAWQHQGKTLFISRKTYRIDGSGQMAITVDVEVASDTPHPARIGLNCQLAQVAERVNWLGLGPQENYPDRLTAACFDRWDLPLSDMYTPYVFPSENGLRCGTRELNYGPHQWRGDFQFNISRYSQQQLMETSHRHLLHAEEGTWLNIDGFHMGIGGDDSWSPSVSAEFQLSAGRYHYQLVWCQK
# T2 sequence (P53051 whole entry): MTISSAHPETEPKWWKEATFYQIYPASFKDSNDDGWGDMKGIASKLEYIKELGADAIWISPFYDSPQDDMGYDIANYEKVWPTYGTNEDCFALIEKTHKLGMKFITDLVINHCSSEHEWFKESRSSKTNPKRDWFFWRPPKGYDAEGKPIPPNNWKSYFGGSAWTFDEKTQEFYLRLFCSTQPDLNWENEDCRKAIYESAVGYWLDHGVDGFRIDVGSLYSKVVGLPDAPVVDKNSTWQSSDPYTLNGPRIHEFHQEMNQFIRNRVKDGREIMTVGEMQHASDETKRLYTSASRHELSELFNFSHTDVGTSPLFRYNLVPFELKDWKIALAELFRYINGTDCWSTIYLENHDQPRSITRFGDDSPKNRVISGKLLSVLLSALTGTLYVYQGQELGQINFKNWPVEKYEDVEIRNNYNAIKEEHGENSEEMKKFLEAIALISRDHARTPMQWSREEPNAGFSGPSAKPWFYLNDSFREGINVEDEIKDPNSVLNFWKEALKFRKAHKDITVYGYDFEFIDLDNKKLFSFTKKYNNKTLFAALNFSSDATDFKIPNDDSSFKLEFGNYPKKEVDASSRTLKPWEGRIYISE
smiles,measurement,setting,value
"CCCCCCCCN=C1SCC2C(O)C(O)C(O)CN12 (stereo not drawn) [Compound 4, 1-Deoxy-6-thio-5-N,6-S-(N′-octyliminomethylidene)nojirimycin]",Ki β-Galase,[1],n.i.
same,Ki α-Glcase2,isomaltase (α-Glcase2),n.i.
same,N188S/G183W GCase activity enhancement at 20 pM,"N188S/G183W mutant GCase; 20 pM, patient fibroblasts",over 70%
same,N188S/G183W GCase activity enhancement at 2 nM,"N188S/G183W mutant GCase; 2 nM, patient fibroblasts",300%
same,concentration of maximum chaperoning effect,N188S/G183W mutant GCase; [3],2 nM
same,concentration over which chaperone/inhibitor balance is unfavorable (net decrease in mutant enzyme activity vs control),N188S/G183W mutant GCase; [3],> 0.2 µM
same,Ki α-Glcase3,[2],n.i.

# Source: PMC6017062, “Probing the Inhibitor versus Chaperone Properties of sp^2-Iminosugars towards Human β-Glucocerebrosidase: A Picomolar Chaperone for Gaucher Disease” (Molecules : A Journal of Synthetic Chemistry and Natural …, 2018)
